The values below come from ChEMBL document CHEMBL1201862, “PubChem BioAssay data set” (2004).

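48-hour exposure; five concentrations; linearly interpolated endpoints. Abbreviation: GI50, concentration required for 50% inhibition of growth.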 Activity calls are given as the source filed them. No stated cut-off is given here; in the data, active = GI50 up to about 1.1 µM and inactive = higher.

Among the test systems are ACHN; DLD-1; HOP-18; IGROV-1; KM-20L2; M14; Malme-3M; RXF 631; SK-MEL-28; SK-MEL-2; SNB-75; SW-620; TK-10; XF498; NCI-H226; SR; A498; MCF7; NCI/ADR-RES.
Holding throughout (assay): growth of human tumour cells (NCI), 48 h

As for `CCOC(=O)C1C(c2cc(OC)c(O)c(OC)c2)c2cc3c(cc2OC1(C)O)OCO3` (centres undefined), the GI50 in the assay with ACHN is 55.2 µM (inactive); in the assay on DLD-1, 42.6 µM (inactive); in the assay on HOP-18, > 100 µM (inactive); in the assay on IGROV-1, > 100 µM (inactive); in the assay on KM-20L2, 64.9 µM (inactive); in the assay with M14 it was 74.3 µM (inactive). The GI50 was > 100 µM (inactive) with Malme-3M; 75.9 µM (inactive) in the assay on RXF 631; 60.7 µM (inactive) with SK-MEL-28; > 100 µM (inactive) with SK-MEL-2; 16.5 µM (inactive) in the assay on SNB-75; 42.9 µM (inactive) in the assay with SW-620. The GI50 in the assay on TK-10 is > 100 µM (inactive); with XF498 it was 31 µM (inactive).

In the case of `Cc1cc2cccc(Cl)c2nc1C(=O)c1ccccc1`, the GI50 in the assay with ACHN is > 100 µM (inactive); in the assay on DLD-1 it was > 100 µM (inactive); in the assay with HOP-18, 18.7 µM (inactive); in the assay on IGROV-1 it was > 100 µM (inactive); with KM-20L2, > 100 µM (inactive); with M14, 76.2 µM (inactive). In addition, the GI50 in the assay on Malme-3M is 50.5 µM (inactive); with NCI-H226, > 100 µM (inactive); in the assay with RXF 631, 89.3 µM (inactive); with SK-MEL-28, > 100 µM (inactive); in the assay with SK-MEL-2, > 100 µM (inactive); in the assay with SNB-75, 17.1 µM (inactive). The GI50 with SR was > 100 µM (inactive); in the assay on SW-620, > 100 µM (inactive); in the assay on TK-10, > 100 µM (inactive); in the assay on XF498, 82 µM (inactive).

`O=C1C=CC2OC(c3ccccc3)C(O)C2O1` (centres undefined): the GI50 in the assay with A498 is 2.27 µM (inactive); with DLD-1, 3.89 µM (inactive); in the assay on HOP-18, 0.984 µM (active); in the assay with IGROV-1 it was 8.99 µM (inactive); in the assay on KM-20L2 it was 5.98 µM (inactive); in the assay with MCF7, 6.07 µM (inactive). In addition, the GI50 is 3.02 µM (inactive) in the assay with Malme-3M; 1.48 µM (inactive) in the assay on NCI-H226; 2.94 µM (inactive) with NCI/ADR-RES; 4.49 µM (inactive) in the assay on SK-MEL-28; 2.75 µM (inactive) in the assay with SK-MEL-2; 10.4 µM (inactive) in the assay on SNB-75. Further, the results for the GI50 with SW-620 and with XF498 were 2.17 µM (inactive) and 2.8 µM (inactive), respectively.

As for `Cn1ncc2c(=O)[nH]c(-c3ccccc3)nc21`, the GI50 in the assay on ACHN is > 100 µM (inactive); in the assay with DLD-1 it was > 100 µM (inactive); in the assay on HOP-18, < 0.01 µM (active); in the assay with IGROV-1, > 100 µM (inactive); in the assay with KM-20L2, > 100 µM (inactive); with M14 it was > 100 µM (inactive). For the same compound, the GI50 with Malme-3M, in the assay on RXF 631, in the assay on SK-MEL-28, in the assay on SK-MEL-2, with SNB-75 and in the assay on SW-620 was > 100 µM (inactive) throughout. In addition, the GI50 with TK-10 and in the assay with XF498 was > 100 µM (inactive) in each case.

Consider `N/C(=N\O)N/N=C\c1ccccc1O`, for which the GI50 was 8.95 µM (inactive) with A498; 5.02 µM (inactive) in the assay with DLD-1; 27.2 µM (inactive) in the assay on HOP-18; 11.3 µM (inactive) in the assay on IGROV-1; 10.2 µM (inactive) in the assay with KM-20L2; 4.32 µM (inactive) in the assay with MCF7. The GI50 is 22.4 µM (inactive) with Malme-3M; 16 µM (inactive) in the assay on NCI-H226; 4.14 µM (inactive) with NCI/ADR-RES; 19.3 µM (inactive) in the assay with SK-MEL-28; 21 µM (inactive) in the assay with SK-MEL-2; 9.48 µM (inactive) with SNB-75. Further, the GI50 with SW-620 is 13.1 µM (inactive); in the assay with XF498 it was 1.04 µM (active).

`CC(C)C1=CC2=CC[C@@H]3[C@](C)(CCC[C@@]3(C)C(=O)O)[C@H]2CC1` [ABIETIC ACID]: the GI50 in the assay on A498 is 49.8 µM (inactive); in the assay with ACHN it was 53.8 µM (inactive); in the assay on DLD-1 it was > 67.9 µM (inactive); in the assay with HOP-18, > 75 µM (inactive); in the assay with IGROV-1, 57.5 µM (inactive); in the assay with KM-20L2, 63.2 µM (inactive). Moreover, the GI50 was 67.9 µM (inactive) in the assay on M14; > 67 µM (inactive) in the assay with Malme-3M; 49.2 µM (inactive) in the assay with NCI-H226; 62.8 µM (inactive) with RXF 631; > 59.3 µM (inactive) in the assay with SK-MEL-28; > 50.9 µM (inactive) with SK-MEL-2. In addition, the GI50 was 55.8 µM (inactive) in the assay on SNB-75; > 100 µM (inactive) in the assay on SR; 45.8 µM (inactive) in the assay on SW-620; > 66.4 µM (inactive) in the assay with TK-10; 73.6 µM (inactive) with XF498.

Turning to `CSCSCC(CO)NC(=O)/C=C\c1c(C)[nH]c(=O)[nH]c1=O` (centres undefined), the GI50 in the assay with A498 is 23.6 µM (inactive); in the assay on DLD-1 it was 11.6 µM (inactive); with HOP-18, 46.1 µM (inactive); in the assay on IGROV-1, 23.7 µM (inactive); with KM-20L2, 7.76 µM (inactive); with MCF7, 2.19 µM (inactive). Further, the GI50 in the assay with Malme-3M is 8.18 µM (inactive); with NCI-H226 it was 35 µM (inactive); in the assay with NCI/ADR-RES, 19 µM (inactive); in the assay on SK-MEL-28, 28.6 µM (inactive); in the assay with SK-MEL-2 it was 14.2 µM (inactive); with SNB-75 it was 16.3 µM (inactive). Moreover, the GI50 in the assay with SW-620 is 15.7 µM (inactive); in the assay with XF498, 1.61 µM (inactive).

On to `NC(=O)C(=O)N/N=C1/c2ccccc2CC1C1(O)C(=O)Nc2c(Cl)cc(Cl)cc21` (centres undefined), for which the GI50 in the assay with A498, in the assay with ACHN, in the assay with DLD-1, in the assay on HOP-18, with IGROV-1 and with KM-20L2 was > 100 µM (inactive) each time. Moreover, the GI50 is > 100 µM (inactive) in the assay with Malme-3M; > 100 µM (inactive) with NCI-H226; > 100 µM (inactive) with SK-MEL-28; > 100 µM (inactive) in the assay with SK-MEL-2; 97.3 µM (inactive) with SNB-75; 70.3 µM (inactive) in the assay on SR. Moreover, the GI50 in the assay with SW-620, with TK-10 and in the assay on XF498 was > 100 µM (inactive) in each case.

As to `CC(=O)OC1C=C(C=O)C(O)(C=O)C2(C)CCCC(C)(C)C12` (centres undefined), the GI50 in the assay with A498 was 1.28 µM (inactive); in the assay with DLD-1 it was 1.05 µM (active); in the assay on HOP-18 it was 0.931 µM (active); in the assay on IGROV-1 it was 2.49 µM (inactive); with KM-20L2, 2.11 µM (inactive); in the assay with MCF7, 1.89 µM (inactive). The GI50 in the assay on Malme-3M was 0.971 µM (active); with NCI-H226 it was 2.69 µM (inactive); in the assay on NCI/ADR-RES it was 1.8 µM (inactive); in the assay on SK-MEL-28, 1.05 µM (active); in the assay on SK-MEL-2, 2.86 µM (inactive); in the assay with SNB-75, 2.4 µM (inactive). The GI50 in the assay with SW-620 was 0.485 µM (active); in the assay on XF498, 1.49 µM (inactive).

For `CCCOC(=O)CNC(=O)OC(C)(C)C`, the GI50 is > 100 µM (inactive) in the assay with ACHN; > 100 µM (inactive) in the assay with DLD-1; 0.897 µM (active) in the assay with HOP-18; > 100 µM (inactive) in the assay with IGROV-1; > 100 µM (inactive) in the assay on KM-20L2; > 100 µM (inactive) in the assay on M14. The GI50 in the assay with Malme-3M, in the assay on NCI-H226, in the assay with RXF 631, in the assay on SK-MEL-28, in the assay with SK-MEL-2 and with SNB-75 was > 100 µM (inactive) each time. Further, the GI50 in the assay with SR, in the assay with SW-620, in the assay on TK-10 and in the assay on XF498 was > 100 µM (inactive) in each case.

Turning to `CCN(CC)C(=O)C(C)n1cc(C)c(=O)[nH]c1=O` (centres undefined), the GI50 in the assay on ACHN, in the assay with IGROV-1, with KM-20L2, with M14, in the assay with Malme-3M and in the assay on SK-MEL-28 was > 100 µM (inactive) each time. The GI50 in the assay with SK-MEL-2 was > 100 µM (inactive); with SNB-75 it was 15.1 µM (inactive); in the assay on SW-620 it was > 100 µM (inactive); in the assay on TK-10, > 100 µM (inactive); in the assay on XF498 it was > 100 µM (inactive).
